Legend:
H-ras 5RP7 cells = settings: 24 h exposure; cited from earlier work
MB157 (breast) cell line = system: MB157 (breast) cell line; set-up: method as in PMID 18615197; settings: 72 h; cited from earlier work
[1] = system: HeLa (cervical) cell line; set-up: method as in PMID 18615197; settings: 72 h; cited from earlier work
[2] = system: murine fibroblasts (L929); set-up: method as in PMID 18364400; settings: 24 h exposure; read-out: IC50, L929, MTT assay; cited from earlier work
A549 (lung) cells = settings: 72 h exposure; cited from earlier work
NIH/3T3 cells = settings: 24 h exposure; cited from earlier work
HeLa cell lines = system: HeLa cell lines; set-up: method as in PMID 19836347; settings: cited from earlier work
[3] = system: OVCAR-3 (ovarian) cell line; set-up: method as in PMID 18615197; settings: 72 h; cited from earlier work
HepG2 cells = system: HepG2 cells; set-up: method as in doi:10.2478/v10213-012-0102-5; settings: cited from earlier work
human fibroblasts (FMM1) = system: human fibroblasts (FMM1); set-up: method as in PMID 20857004; settings: 50 µg/mL, 72 h treatment; cited from earlier work
[4] = Cytotoxicity over four assays in both cell lines; type: cell-based; settings: mouse (Balb/c 3T3) and human (HepG2), Balb/c 3T3 clone A31 fibroblasts and HepG2 hepatoma cells, mostly greater than 50%, read-out: Viability of the cells at the highest concentrations used
Protocol: Data obtained from the measurement of the optical density in these assays were transformed to percentages in relation to the control group, considered to be 100% for the MTT, NRU, and TPC assays and 0% for the LDH assay (Figure 1).
The human hepatoma cell line (HepG2) was purchased from the American Type Culture Collection (ATCC HB-8065). These cells were cultured in Minimum Essential Medium Eagle (MEME) (ATCC). The murine fibroblast cell line (Balb/c 3T3 clone A31) (gift from Department of Swine Diseases of the National Veterinary Research Institute in Pulawy) was cultured in Dulbecco’s Modified Eagle’s Medium (DMEM) (ATCC). The media were supplemented with 10% BCS (Balb/c 3T3), 10% FBS (HepG2), 1% L-glutamine, and 1% antibiotic solution. The cells were maintained in 75 cm^2 cell culture flasks (Nunc, Roskilde, Denmark) in a humidified incubator, NuAire (Plymouth, MN, USA) at 37 °C, in an atmosphere of 5% CO2. The medium was refreshed every two or three days and the cells were trypsinized by 0.25% trypsin–0.02% EDTA after reaching 70–80% confluence. […]
The concentration ranges of compounds were chosen according to their solubility and their plasma level. […] Cytotoxicity was assessed after 72 h of exposure of the cells to the compounds. […]
The results of the tests were expressed as a mean ± SD. […] The IC50 values were calculated by GraphPad Prism 5 software (San Diego, CA, USA). […]

FaO cells = system: FaO cells; set-up: method as in doi:10.2478/v10213-012-0102-5; settings: cited from earlier work
MCF7 cells = system: MCF7 cells; set-up: method as in PMID 22832309; settings: 48 h incubation, cited from earlier work
IEC-6 cells = system: IEC-6 cells; set-up: method as in PMID 20946968; settings: 84.8 µM, 24 h exposure; cited from earlier work
10T1/2 cell line = system: 10T1/2 cell line; set-up: method as in PMID 26828469; settings: same observation as in this study; cited from earlier work

**Q.** With `O=[N+]([O-])[O-].[Ag+]` [Silver nitrate] as the molecule, how does the IC50 (H-ras 5RP7 cells) read?
**A.** 6.75 µM

**Q.** And the IC50 (MB157 (breast) cell line)?
**A.** 5 µM

**Q.** And the IC50 [1]?
**A.** 50 µM

**Q.** And the IC50 [2]?
**A.** 3.57 µM

**Q.** What about the IC50 (A549 (lung) cells) of the same molecule?
**A.** 13.5 µM

**Q.** What about the IC50 (NIH/3T3 cells) of the same molecule?
**A.** 12.3 µM

**Q.** What about the IC50 (HeLa cell lines) of the same molecule?
**A.** 2.89 µM

**Q.** What about the IC50 [3] of the same molecule?
**A.** 35 µM

**Q.** Which “Cytotoxicity in HepG2 cells” value (HepG2 cells) does the source give for `Cc1ncc([N+](=O)[O-])n1CCO` [Metronidazole] here?
**A.** low cytotoxicity

**Q.** And the “Decrease of viability of human fibroblasts (FMM1)” value (human fibroblasts (FMM1))?
**A.** 40%

**Q.** And the viability at 72 h [4]?
**A.** > 50%

**Q.** What about the “Cytotoxicity in FaO cells” value (FaO cells) of the same molecule?
**A.** low cytotoxicity

**Q.** And the “Inhibition of MCF7 cells” value (MCF7 cells; 250 µM)?
**A.** 30%

**Q.** And the “Cytotoxicity in MCF7 cells” value (MCF7 cells; concentration range 2.5 to 250 µM)?
**A.** not cytotoxic

**Q.** And the “Inhibition of viability of IEC-6 cells” value (IEC-6 cells)?
**A.** 8%

**Q.** What about the “Cytotoxicity in 10T1/2 cell line” value (10T1/2 cell line) of the same molecule?
**A.** poorly cytotoxic

Source: paper PMC6572996, “Silver(I) Complexes of the Pharmaceutical Agents Metronidazole and 4-Hydroxymethylpyridine: Comparison of Cytotoxic Profile for Potential Clinical Application” (Molecules, 2019)
